Laboratory results published in US20210230159A1, “4H-PYRIDO[1,2-A]PYRIMIDIN-4-ONE COMPOUNDS” (Prana Biotechnology Limited, priority 2014, published 2021).

Assay: Hydrogen peroxide (H2O2) inhibition assay (fluorescence, DCF/horseradish peroxidase)
Type: biochemical
Conditions: for IC50: HCl salt tested where HCl salt MW is given; for Fe-ASC % (cf. 0.4 uM Fe/Asc; cf. CQ, CQ = 100%) / Cu % ASC (cf. CQ = 100%) / Zn % ASC (cf. CQ = 100%): ascorbic acid as reducing substrate; for Fe-ASC % (cf. 0.4 uM Fe/Asc; cf. CQ, CQ = 100%) / Fe-DA % (cf. 0.4 uM Fe/DA; cf. CQ, CQ = 100%): test compound 0.4 μM, lower values = greater inhibition of H2O2; for Fe-DA % (cf. 0.4 uM Fe/DA; cf. CQ, CQ = 100%): dopamine as reducing substrate
Description: Assay 1. Hydrogen Peroxide Assay
H2O2 is a strong oxidizer and a highly reactive oxygen species that is known to be toxic to surrounding proteins and organelles, inhibiting their function. […] […] H2O2 generated by the system is assessed by measuring the specific fluorescence profile at the excitation and emission wavelengths of 485 and 530 nm respectively, in the presence of test compound. Test compounds were dissolved in DMSO and tested at concentrations of 0.4 μM. Test compounds are ranked according to their capacity to inhibit H2O2 generated by the system where lower values reflect greater ability to inhibit H2O2 production.

SMILES	IC50	Fe-ASC % (cf. 0.4 uM Fe/Asc; cf. CQ, CQ = 100%)	Fe-DA % (cf. 0.4 uM Fe/DA; cf. CQ, CQ = 100%)	Cu % ASC (cf. CQ = 100%)	Zn % ASC (cf. CQ = 100%)
CN(CCc1ccccn1)Cc1cc(=O)n2cccc(O)c2n1 [Compound 1476]	230 nM	122% ASC	46%	–	–
Cc1ccc(CNCc2cc(=O)n3cccc(O)c3n2)cc1 [Compound 1478]	3120 nM	198% ASC	75%	–	–
CN(Cc1ccc(F)cc1)Cc1cc(=O)n2cccc(O)c2n1 [Compound 1479]	460 nM	147% ASC	42%	–	–
CCCCN(C)Cc1cc(=O)n2cccc(O)c2n1 [Compound 1485]	530 nM	159% ASC	57%	–	–
CCN(CC)Cc1cc(=O)n2c(C)ccc(O)c2n1 [Compound 1490]	400 nM	178% ASC	55%	–	–
C#CCN(C)Cc1cc(=O)n2c(C)ccc(O)c2n1 [Compound 1491]	300 nM	>222% ASC	48%	–	–
Cc1ccc(O)c2nc(CN(C)Cc3ccc(F)cc3)cc(=O)n12 [Compound 1500]	360 nM	171% ASC	42%	–	–
Cc1ccc(O)c2nc(CNCC3CCCCC3)cc(=O)n12 [Compound 1503]	230 nM	204% ASC	42%	–	–
Cc1ccc(O)c2nc(CNCCc3ccccn3)cc(=O)n12 [Compound 1504]	310 nM	160% ASC	33%	–	–
CC1CCN(Cc2cc(=O)n3cccc(O)c3n2)CC1 [Compound 1506]	> 10000 nM	161% ASC	48%	–	–
Cc1ccc(O)c2nc(CN3CCC(C)CC3)cc(=O)n12 [Compound 1508]	170 nM	148% ASC	32%	–	–
O=c1cc(CN2CCN(Cc3ccccc3F)CC2)nc2c(O)cccn12 [Compound 1515]	1000 nM	103% ASC	54%	–	–
CN(Cc1cc(=O)n2cccc(O)c2n1)Cc1ccccc1F [Compound 1516]	300 nM	102% ASC	52%	–	–

The next lines start with the values.

IC50	Fe-ASC % (cf. 0.4 uM Fe/Asc; cf. CQ, CQ = 100%)	Fe-DA % (cf. 0.4 uM Fe/DA; cf. CQ, CQ = 100%)	Cu % ASC (cf. CQ = 100%)	Zn % ASC (cf. CQ = 100%)	SMILES
350 nM	105% ASC	55%	–	–	CN(Cc1cccc(F)c1)Cc1cc(=O)n2cccc(O)c2n1 [Compound 1517]
580 nM	84% ASC	49%	–	–	CN(Cc1cccc(Cl)c1)Cc1cc(=O)n2cccc(O)c2n1 [Compound 1518]
350 nM	100% ASC	47%	–	–	Cc1ccc(O)c2nc(CN(C)Cc3cccc(Cl)c3)cc(=O)n12 [Compound 1519]
> 10000 nM	123% ASC	50%	–	–	CN(Cc1cc(=O)n2cccc(O)c2n1)C1CCCCC1 [Compound 1521]
440 nM	156% ASC	47%	–	–	Cc1ccc(O)c2nc(CN3CCN(Cc4ccccc4F)CC3)cc(=O)n12 [Compound 1522-]
700 nM	135% ASC	49%	–	–	Cc1ccc(O)c2nc(CN(C)C3CCCCC3)cc(=O)n12 [Compound 1523]
320 nM	105% ASC	46%	–	–	Cc1ccc(O)c2nc(CN(C)Cc3cccc(F)c3)cc(=O)n12 [Compound 1525]
330 nM	133% ASC	64%	–	–	Cc1ccc(O)c2nc(CN(C)Cc3ccccc3F)cc(=O)n12 [Compound 1527]
1480 nM	–	–	–	–	Cc1cccc(NCc2cc(=O)n3c(C)ccc(O)c3n2)n1 [Compound 1531]
900 nM	–	–	–	–	O=C(c1cnc2c(O)cccn2c1=O)N1CCCC1 [Compound 1532]
1190 nM	–	–	–	–	O=C(c1cnc2c(O)cccn2c1=O)N1CCCCC1 [Compound 1533]
–	–	–	Cu 204% ASC	Zn 130% ASC	CCCc1cnc2c(O)c(-c3cccnc3)c(Cl)cn2c1=O [Compound 1629, 7-Chloro-9-hydroxy-3-propyl-8-(pyridin-3-yl)-4H-pyrido[1,2-a]pyrimidine-4-one]
–	–	–	Cu 213% ASC	Zn 129% ASC	CCCc1cnc2c(O)c(-c3c(C)noc3C)c(Cl)cn2c1=O [Compound 1630]
–	–	–	Cu 248% ASC	Zn 101% ASC	CCCc1cnc2c(O)c(CN(C)C)ccn2c1=O [Compound 1631]
–	–	–	Cu 228% ASC	Zn 106% ASC	CC(C)c1cnc2c(O)c(CN(C)C)ccn2c1=O [Compound 1632]
–	–	–	Cu 17% ASC	Zn 140% ASC	CC(C)c1cnc2c(O)c(-c3cnn(C)c3)ccn2c1=O [Compound 1633]
